Reference: ChEMBL document CHEMBL1201862, “PubChem BioAssay data set” (2004)
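Growth conditions: 96-well plates. Treatment: test compound, 48 hours, 5 concentrations. Analysis: linear interpolation between bracketing concentrations; unreached endpoints set to highest concentration. The concentration for 50% growth inhibition is given as GI50.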 Calls of active or inactive are those of the source. Rule as the data show it: active = GI50 up to about 1.1 µM and inactive = higher.

Columns and labels:
Experiment in all cases: inhibition of tumour cell growth, NCI panel, 48 h
[1] = tested on: 786-0
[2] = tested on: A498
[3] = tested on: A549
[4] = tested on: ACHN
[5] = tested on: BT-549
[6] = tested on: CAKI-1
[7] = tested on: CCRF-CEM
[8] = tested on: COLO 205
[9] = tested on: DU-145
[10] = tested on: EKVX
[11] = tested on: HCT-116
[12] = tested on: HCT-15
[13] = tested on: HL-60
[14] = tested on: HOP-62
[15] = tested on: HOP-92
[16] = tested on: HT-29
[17] = tested on: Hs-578T
[18] = tested on: IGROV-1
[19] = tested on: K562
[20] = tested on: KM12
[21] = tested on: LOX IMVI
[22] = tested on: M14
[23] = tested on: MCF7
[24] = tested on: MDA-MB-231
[25] = tested on: MDA-MB-435
[26] = tested on: MDA-N
[27] = tested on: MOLT-4
[28] = tested on: Malme-3M
[29] = tested on: NCI-H226
[30] = tested on: NCI-H23
[31] = tested on: NCI-H460
[32] = tested on: NCI-H522
[33] = tested on: NCI/ADR-RES
[34] = tested on: OVCAR-3
[35] = tested on: OVCAR-4
[36] = tested on: OVCAR-5
[37] = tested on: OVCAR-8
[38] = tested on: PC-3
[39] = tested on: RPMI-8226
[40] = tested on: RXF 393
[41] = tested on: SF-268
[42] = tested on: SF-295
[43] = tested on: SF-539
[44] = tested on: SK-MEL-28
[45] = tested on: SK-MEL-2
[46] = tested on: SK-MEL-5
[47] = tested on: SK-OV-3
[48] = tested on: SN12C
[49] = tested on: SNB-19
[50] = tested on: SNB-75
[51] = tested on: SR
[52] = tested on: SW-620
[53] = tested on: T47D
[54] = tested on: TK-10
[55] = tested on: U-251
[56] = tested on: UACC-257
[57] = tested on: UACC-62
[58] = tested on: UO-31

Measured: GI50

O=c1[nH][nH]c(=S)c(=O)[nH]1
> 100 µM: [12]
inactive: [1] > 100 µM | [2] > 100 µM | [3] > 100 µM | [4] > 100 µM | [5] > 100 µM | [6] > 100 µM | [7] > 100 µM | [8] > 100 µM | [9] > 100 µM | [10] > 100 µM | [11] > 100 µM | [13] > 100 µM | [14] > 100 µM | [15] > 100 µM | [16] > 100 µM | [17] > 100 µM | [18] > 100 µM | [19] > 100 µM | [20] > 100 µM | [21] > 100 µM | [22] > 100 µM | [23] > 100 µM | [24] > 100 µM | [25] > 100 µM | [26] > 100 µM | [27] > 100 µM | [28] > 100 µM | [29] > 100 µM | [30] > 100 µM | [31] > 100 µM | [32] > 100 µM | [33] > 100 µM | [34] > 100 µM | [35] > 100 µM | [36] > 100 µM | [37] > 100 µM | [38] > 100 µM | [39] > 100 µM | [40] > 100 µM | [41] > 100 µM | [42] > 100 µM | [43] > 100 µM | [44] > 100 µM | [45] > 100 µM | [46] > 100 µM | [47] > 100 µM | [48] > 100 µM | [49] > 100 µM | [50] > 100 µM | [51] > 100 µM | [52] > 100 µM | [53] > 100 µM | [54] > 100 µM | [55] > 100 µM | [56] > 100 µM | [57] > 100 µM | [58] > 100 µM
